Data: ChEMBL document CHEMBL1201861, “Genomics of Drug Sensitity in Cancer screening data, Wellcome Trust Sanger Institute”
pIC50: −log10 of the molar value.

Tests used:
[1] = tested on: NCI-H441; experiment: cells; assay type: functional, cell-based; details: Homo sapiens;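 further: growth inhibition of NCI-H441 cells, read out with a cell viability assay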
Description: SANGER: Inhibition of human NCI-H441 cell growth in a cell viability assay.

[2] = tested on: SIMA; experiment: cells; assay type: functional, cell-based, Homo sapiens; details: Homo sapiens, SIMA;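 further: growth inhibition of SIMA cells, measured with a cell viability readout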
Description: SANGER: Inhibition of human SIMA cell growth in a cell viability assay.

[3] = tested on: PANC-03-27; experiment: cells; assay type: functional, cell-based; details: Homo sapiens
Description: SANGER: Inhibition of human PANC-03-27 cell growth in a cell viability assay.

[4] = tested on: CAL-39; experiment: cells; assay type: functional, cell-based; details: Homo sapiens;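 further: cell viability assay measuring growth inhibition of CAL-39 cells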
Description: SANGER: Inhibition of human CAL-39 cell growth in a cell viability assay.

[5] = tested on: D-542MG; experiment: cells; assay type: functional, cell-based; details: Homo sapiens
Description: SANGER: Inhibition of human D-542MG cell growth in a cell viability assay.

[6] = tested on: IGR-1; experiment: cells; assay type: functional, cell-based; details: Homo sapiens;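 further: growth inhibition of human IGR-1 cells, read out with a cell viability assay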
Description: SANGER: Inhibition of human IGR-1 cell growth in a cell viability assay.

[7] = tested on: COLO-741; experiment: cells; assay type: functional, cell-based; details: Homo sapiens
Description: SANGER: Inhibition of human COLO-741 cell growth in a cell viability assay.

[8] = tested on: A2058; experiment: cells; assay type: functional, cell-based; details: Homo sapiens;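 further: reduction of A2058 cell growth, read out with a viability assay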
Description: SANGER: Inhibition of human A2058 cell growth in a cell viability assay.

[9] = tested on: MHH-CALL-2; experiment: cells; assay type: functional, cell-based, Homo sapiens; details: Homo sapiens, MHH-CALL-2;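 further: growth inhibition of the cell line, read out in a cell viability assay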
Description: SANGER: Inhibition of human MHH-CALL-2 cell growth in a cell viability assay.

[10] = tested on: NB1; experiment: cells; assay type: functional, cell-based, Homo sapiens; details: Homo sapiens, NB1;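 further: reduction of NB1 cell proliferation, read out with a viability assay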
Description: SANGER: Inhibition of human NB1 cell growth in a cell viability assay.

[11] = tested on: RCM-1; experiment: cells; assay type: functional, cell-based; details: Homo sapiens;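 further: growth inhibition of the RCM-1 line, determined with a cell viability readout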
Description: SANGER: Inhibition of human RCM-1 cell growth in a cell viability assay.

[12] = tested on: MRK-nu-1; experiment: cells; assay type: functional, cell-based, Homo sapiens; details: Homo sapiens, MRK-nu-1;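 further: cell viability assay measuring growth suppression of human MRK-nu-1 cells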
Description: SANGER: Inhibition of human MRK-nu-1 cell growth in a cell viability assay.

[13] = tested on: NCI-H520; experiment: cells; assay type: functional, cell-based; details: Homo sapiens;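 further: growth inhibition of NCI-H520 cells, measured by a cell viability assay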
Description: SANGER: Inhibition of human NCI-H520 cell growth in a cell viability assay.

[14] = tested on: SK-OV-3; experiment: cells; assay type: functional, cell-based; details: Homo sapiens;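 further: growth inhibition of SK-OV-3 human cells, read out with a cell viability assay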
Description: SANGER: Inhibition of human SK-OV-3 cell growth in a cell viability assay.

[15] = tested on: EHEB; experiment: cells; assay type: functional, cell-based; details: Homo sapiens;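 further: growth inhibition of human EHEB cells, read out with a cell viability assay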
Description: SANGER: Inhibition of human EHEB cell growth in a cell viability assay.

[16] = tested on: SW1710; experiment: cells; assay type: functional, cell-based; details: Homo sapiens;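 further: growth inhibition of SW1710 cells, determined with a cell viability assay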
Description: SANGER: Inhibition of human SW1710 cell growth in a cell viability assay.

[17] = tested on: YKG-1; experiment: cells; assay type: functional, cell-based; details: Homo sapiens;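 further: cell growth inhibition, read out with a viability assay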
Description: SANGER: Inhibition of human YKG-1 cell growth in a cell viability assay.

[18] = tested on: U-698-M; experiment: cells; assay type: functional, cell-based, Homo sapiens; details: Homo sapiens, U-698-M
Description: SANGER: Inhibition of human U-698-M cell growth in a cell viability assay.

[19] = tested on: NCI-H2347; experiment: cells; assay type: functional, cell-based; details: Homo sapiens;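 further: growth inhibition of the cell line, read out with a cell viability assay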
Description: SANGER: Inhibition of human NCI-H2347 cell growth in a cell viability assay.

[20] = tested on: RT-112; experiment: cells; assay type: functional, cell-based; details: Homo sapiens
Description: SANGER: Inhibition of human RT-112 cell growth in a cell viability assay.

[21] = tested on: CP66-MEL; experiment: cells; assay type: functional, cell-based; details: Homo sapiens;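 further: growth inhibition of CP66-MEL cells determined in a cell viability assay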
Description: SANGER: Inhibition of human CP66-MEL cell growth in a cell viability assay.

[22] = tested on: SCC-4; experiment: cells; assay type: functional, cell-based; details: Homo sapiens;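 further: growth inhibition of human SCC-4 cells, read out as cell viability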
Description: SANGER: Inhibition of human SCC-4 cell growth in a cell viability assay.

[23] = tested on: BHT-101; experiment: cells; assay type: functional, cell-based; details: Homo sapiens
Description: SANGER: Inhibition of human BHT-101 cell growth in a cell viability assay.

[24] = tested on: D-336MG; experiment: cells; assay type: functional, cell-based, Homo sapiens; details: Homo sapiens, D-336MG
Description: SANGER: Inhibition of human D-336MG cell growth in a cell viability assay.

[25] = tested on: BEN; experiment: cells; assay type: functional, cell-based; details: Homo sapiens;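 further: growth inhibition of the BEN cell line, read out with a cell viability assay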
Description: SANGER: Inhibition of human BEN cell growth in a cell viability assay.

[26] = tested on: HCT-15; experiment: cells; assay type: functional, cell-based; details: Homo sapiens;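 further: cell viability readout, IC50 reflecting suppression of HCT-15 cell growth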
Description: SANGER: Inhibition of human HCT-15 cell growth in a cell viability assay.

[27] = tested on: NCI-H510A; experiment: cells; assay type: functional, cell-based, Homo sapiens; details: Homo sapiens, NCI-H510A;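 further: growth inhibition of NCI-H510A cells, read out with a cell viability assay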
Description: SANGER: Inhibition of human NCI-H510A cell growth in a cell viability assay.

[28] = tested on: COLO-679; experiment: cells; assay type: functional, cell-based; details: Homo sapiens
Description: SANGER: Inhibition of human COLO-679 cell growth in a cell viability assay.

[29] = tested on: OVCAR-3; experiment: cells; assay type: functional, cell-based; details: Homo sapiens;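 further: growth inhibition of human OVCAR-3 cells, determined by a cell viability assay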
Description: SANGER: Inhibition of human OVCAR-3 cell growth in a cell viability assay.

[30] = tested on: CAL-51; experiment: cells; assay type: functional, cell-based; details: Homo sapiens;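 further: human CAL-51 cell line, growth inhibition read out via a cell viability assay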
Description: SANGER: Inhibition of human CAL-51 cell growth in a cell viability assay.

[31] = tested on: NCI-H630; experiment: cells; assay type: functional, cell-based; details: Homo sapiens;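 further: growth inhibition of NCI-H630 cells, read out with a cell viability assay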
Description: SANGER: Inhibition of human NCI-H630 cell growth in a cell viability assay.

[32] = tested on: MC-CAR; experiment: cells; assay type: functional, cell-based, Homo sapiens; details: Homo sapiens, MC-CAR;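 further: growth inhibition of the human MC-CAR cell line, read out by a cell viability assay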
Description: SANGER: Inhibition of human MC-CAR cell growth in a cell viability assay.

[33] = tested on: KYSE-410; experiment: cells; assay type: functional, cell-based; details: Homo sapiens;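 further: growth inhibition of KYSE-410 cells, measured through a cell viability readout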
Description: SANGER: Inhibition of human KYSE-410 cell growth in a cell viability assay.

[34] = tested on: SK-MES-1; experiment: cells; assay type: functional, cell-based; details: Homo sapiens;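 further: growth inhibition of human SK-MES-1 cells, read out with a cell viability assay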
Description: SANGER: Inhibition of human SK-MES-1 cell growth in a cell viability assay.

[35] = tested on: SNU-449; experiment: cells; assay type: functional, cell-based; details: Homo sapiens
Description: SANGER: Inhibition of human SNU-449 cell growth in a cell viability assay.

[36] = tested on: OE19; experiment: cells; assay type: functional, cell-based; details: Homo sapiens;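 further: growth inhibition of OE19 cells, measured through a cell viability read-out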
Description: SANGER: Inhibition of human OE19 cell growth in a cell viability assay.

[37] = tested on: SR; experiment: cells; assay type: functional, cell-based, Homo sapiens; details: Homo sapiens, SR
Description: SANGER: Inhibition of human SR cell growth in a cell viability assay.

[38] = tested on: CHP-126; experiment: cells; assay type: functional, cell-based, Homo sapiens; details: Homo sapiens, CHP-126
Description: SANGER: Inhibition of human CHP-126 cell growth in a cell viability assay.

[39] = tested on: MFE-280; experiment: cells; assay type: functional, cell-based; details: Homo sapiens;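 further: growth inhibition of MFE-280 cells, determined with a cell viability readout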
Description: SANGER: Inhibition of human MFE-280 cell growth in a cell viability assay.

[40] = tested on: HuO9; experiment: cells; assay type: functional, cell-based; details: Homo sapiens;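 further: growth inhibition of HuO9 cells, read out with a cell viability assay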
Description: SANGER: Inhibition of human HuO9 cell growth in a cell viability assay.

[41] = tested on: BL-70; experiment: SANGER: Inhibition of human BL-70 cell growth in a cell viability assay.; assay type: functional, cell-based; details: Homo sapiens, BL-70
[42] = tested on: NCI-H1694; experiment: cells; assay type: functional, cell-based, Homo sapiens; details: Homo sapiens, NCI-H1694;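 further: cell viability assay measuring inhibition of growth in human NCI-H1694 cells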
Description: SANGER: Inhibition of human NCI-H1694 cell growth in a cell viability assay.

[43] = tested on: MDA-MB-157; experiment: cells; assay type: functional, cell-based; details: Homo sapiens
Description: SANGER: Inhibition of human MDA-MB-157 cell growth in a cell viability assay.

[44] = tested on: PA-1; experiment: cells; assay type: functional, cell-based; details: Homo sapiens;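 further: IC50 for suppression of PA-1 cell proliferation, determined with a cell viability read-out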
Description: SANGER: Inhibition of human PA-1 cell growth in a cell viability assay.

[45] = tested on: CHL-1; experiment: cells; assay type: functional, cell-based; details: Homo sapiens;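 further: cell growth inhibition, read out with a cell viability assay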
Description: SANGER: Inhibition of human CHL-1 cell growth in a cell viability assay.

[46] = tested on: RPMI-6666; experiment: cells; assay type: functional, cell-based, Homo sapiens; details: Homo sapiens, RPMI-6666
Description: SANGER: Inhibition of human RPMI-6666 cell growth in a cell viability assay.

[47] = tested on: NCI-H719; experiment: cells; assay type: functional, cell-based, Homo sapiens; details: Homo sapiens, NCI-H719;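 further: growth inhibition of the cultured cell line, read out with a viability assay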
Description: SANGER: Inhibition of human NCI-H719 cell growth in a cell viability assay.

[48] = tested on: COR-L279; experiment: SANGER: Inhibition of human COR-L279 cell growth in a cell viability assay.; assay type: functional, cell-based; details: Homo sapiens, COR-L279
[49] = tested on: IST-SL2; experiment: cells; assay type: functional, cell-based, Homo sapiens; details: Homo sapiens, IST-SL2;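 further: growth inhibition of human IST-SL2 cells, read out by a cell viability assay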
Description: SANGER: Inhibition of human IST-SL2 cell growth in a cell viability assay.

[50] = tested on: DU-145; experiment: cells; assay type: functional, cell-based; details: Homo sapiens
Description: SANGER: Inhibition of human DU-145 cell growth in a cell viability assay.

[51] = tested on: GMS-10; experiment: cells; assay type: functional, cell-based; details: Homo sapiens;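 further: growth inhibition of GMS-10 cells, read out as cell viability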
Description: SANGER: Inhibition of human GMS-10 cell growth in a cell viability assay.

[52] = tested on: SW1573; experiment: cells; assay type: functional, cell-based; details: Homo sapiens;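 further: growth inhibition of SW1573 cells, read out with a cell viability assay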
Description: SANGER: Inhibition of human SW1573 cell growth in a cell viability assay.

[53] = tested on: GP5d; experiment: cells; assay type: functional, cell-based; details: Homo sapiens;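 further: growth inhibition of human GP5d cells, read out with a cell viability assay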
Description: SANGER: Inhibition of human GP5d cell growth in a cell viability assay.

[54] = tested on: UACC-812; experiment: cells; assay type: functional, cell-based; details: Homo sapiens
Description: SANGER: Inhibition of human UACC-812 cell growth in a cell viability assay.

[55] = tested on: NCI-H596; experiment: cells; assay type: functional, cell-based; details: Homo sapiens;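 further: growth inhibition of NCI-H596 cells, read out with a cell viability assay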
Description: SANGER: Inhibition of human NCI-H596 cell growth in a cell viability assay.

[56] = tested on: NCCIT; experiment: SANGER: Inhibition of human NCCIT cell growth in a cell viability assay.; assay type: functional, cell-based; details: Homo sapiens, NCCIT
[57] = tested on: C32; experiment: cells; assay type: functional, cell-based; details: Homo sapiens;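 further: cell viability assay, with IC50 reflecting inhibition of C32 cell growth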
Description: SANGER: Inhibition of human C32 cell growth in a cell viability assay.

[58] = tested on: UO-31; experiment: cells; assay type: functional, cell-based; details: Homo sapiens
Description: SANGER: Inhibition of human U031 cell growth in a cell viability assay.

Measured: pIC50

COC(=O)[C@H](CCSC)NC(=O)c1ccc(NC[C@@H](N)CS)cc1-c1ccccc1
< 5.99: [1] | [2] | [3] | [4] | [5] | [6] | [7] | [8] | [9] | [10] | [11] | [12] | [13] | [14] | [15] | [16] | [17] | [18] | [19] | [20] | [21] | [22] | [23] | [24] | [25] | [26] | [27] | [28] | [29] | [30] | [31] | [32] | [33] | [34] | [35] | [36] | [37] | [38] | [39] | [40] | [41] | [42] | [43] | [44] | [45] | [46] | [47] | [48] | [49] | [50] | [51] | [52] | [53] | [54] | [55] | [56] | [57] | [58]
